EC50 data for 28 compounds are collected here from patent publication US11999742B2, “Substituted pyrrolo[1,2-b]pyridazines as anthelmintics” (BOEHRINGER INGELHEIM VETMEDICA GMBH, priority 2021, dated 2024).

SMILES strings stand for the structures. pEC50: −log10 of the molar value.

In assay [1] the test system is Microfilaria of Dirofilaria immitis. As to the kind of experiment: Motility of Dirofilaria immitis microfilariae in microtiter plate, 3 days, dose response. Format: cell-based. Conditions: 72 h, read-out: EC50, motility of D. immitis microfilaria, three days at 37° C., 5% CO2, vs DMSO control.
The subject of assay [2] is Haemonchus contortus L1 larvae. As to the kind of experiment: Haemonchus contortus larval development L1 to L3, 4 days, dose response. The note with it: 96 h, read-out: EC50, development of H. contortus larvae from L1 to L3.
Text: Biological Example 2: Screening Method to Test Activity of Compounds Against Haemonchus contortus
The subject of assay [3] is L4 stage larvae of Dirofilaria immitis. Description: Motility of L4 stage Dirofilaria immitis larvae, 3 days, dose response. The class given is cell-based. Conditions: 72 h, read-out: EC50, motility of L4 stage D. immitis, three days at 37° C., 5% CO2, vs DMSO control.

As to `Cc1cc2c(N3CCOCC3)c(C(=O)N[C@H]3CCOc4ccccc43)cnn2c1-c1cc(Cl)cc(Cl)c1` [Compound A499], the pEC50 in assay [1] was > 8.00; in assay [2] it was 7.00 to 8.00; in assay [3] it was > 8.00.
With `CC(C)(C)c1c(C(=O)N[C@H]2CCOc3ccccc32)cnn2c(-c3cc(Cl)cc(Cl)c3)c(Cl)cc12` [Compound A477], the pEC50 in assay [1] is > 8.00; in assay [2], 7.00 to 8.00; in assay [3], > 8.00.
Turning to `Cc1cc2c(C(C)(C)C)c(C(=O)N[C@H]3CCc4sc(Br)nc43)cnn2c1-c1cc(F)cc(Cl)c1Cl` [Compound A536a], the pEC50 was > 8.00 in assay [1], 7.00 to 8.00 in assay [2] and 7.00 to 8.00 in assay [3].
As for `Cc1cc2c(C(C)(C)C)c(C(=O)N[C@H]3CCc4ccccc43)cnn2c1-c1cc(F)cc(Cl)c1Cl` [Compound A558], the negative logarithm of the EC50 (pEC50) in assay [1], in assay [2] and in assay [3] was > 8.00 each time.
As to `CN(C)c1c(C(=O)N[C@H]2CCOc3ccccc32)cnn2c(-c3cc(Cl)cc(Cl)c3Cl)c(Cl)cc12` [Compound A473], the figures for the pEC50 in assay [1], in assay [2] and in assay [3] were 7.00 to 8.00, > 8.00 and > 8.00, respectively.
Turning to `CN(C)c1c(C(=O)N[C@H]2CCOc3ccccc32)cnn2c(-c3cc(F)cc(F)c3F)c(Cl)cc12` [Compound A474], the negative-log EC50 (pEC50) in assay [1] was > 8.00; in assay [2], 7.00 to 8.00; in assay [3], > 8.00.
Take `Cc1cc2c(C(C)C)c(C(=O)N[C@H]3CCOc4ccccc43)cnn2c1-c1cc(Cl)cc(Cl)c1` [Compound A465, 7-(3,5-dichlorophenyl)-N-[(4S)-3,4-dihydro-2H-1-benzopyran-4-yl]-6-methyl-4-(propan-2-yl)pyrrolo[1,2-b]pyridazine-3-carboxamide]: the pEC50 is 6.00 to 7.00 in assay [1], 7.00 to 8.00 in assay [2] and 7.00 to 8.00 in assay [3].
On to `O=C(N[C@H]1CCOc2ccccc21)c1cnn2c(-c3cc(F)cc(Cl)c3Cl)c(Cl)cc2c1N1CC(F)(F)C1` [Compound A507], for which the pEC50 in assay [1], in assay [2] and in assay [3] was > 8.00 in each case.
For the compound `CC(C)(C)c1c(C(=O)N[C@H]2CCOc3ccccc32)cnn2c(-c3cc(Cl)cc(Cl)c3Cl)c(Cl)cc12` [Compound A522], the pEC50 in assay [1], in assay [2] and in assay [3] was > 8.00 throughout.
Regarding `CC(C)(C)c1c(C(=O)N[C@H]2CCOc3ccccc32)cnn2c(-c3cc(F)cc(Cl)c3Cl)c(Cl)cc12` [Compound A502, 4-tert-butyl-6-chloro-7-(2,3-dichloro-5-fluorophenyl)-N-[(4S)-3,4-dihydro-2H-1-benzopyran-4-yl]pyrrolo[1,2-b]pyridazine-3-carboxamide], the negative-log EC50 (pEC50) in assay [1], in assay [2] and in assay [3] was > 8.00 each time.
For `CC(C)c1c(C(=O)NN2CCOc3ccccc32)cnn2c(-c3cc(F)cc(Cl)c3Cl)c(Cl)cc12` [Compound A496], the negative logarithm of the EC50 (pEC50) in assay [1] was > 8.00; in assay [2], 7.00 to 8.00; in assay [3], 7.00 to 8.00.
With `Cc1cc2c(C(C)(C)C)c(C(=O)NN3CCOc4ccccc43)cnn2c1-c1cc(F)cc(Cl)c1Cl` [Compound A495], the pEC50 in assay [1], in assay [2] and in assay [3] was > 8.00 each time.
For the compound `Cc1cc2c(C(C)(C)C)c(C(=O)NN3CCOc4ccccc43)cnn2c1-c1cc(Cl)cc(Cl)c1` [Compound A482], the pEC50 was 5.00 to 6.00 in assay [1], 6.00 to 7.00 in assay [2] and 7.00 to 8.00 in assay [3].
Take `CC(C)(C)c1c(C(=O)N[C@H]2CCOc3ccccc32)cnn2c(-c3c(Cl)cc(F)cc3Cl)c(Cl)cc12` [Compound A485]: the pEC50 in assay [1], in assay [2] and in assay [3] was > 8.00 in each case.
In the case of `CC(C)(C)c1c(C(=O)N[C@H]2CCOc3ccccc32)cnn2c(-c3c(F)cc(F)cc3F)c(Cl)cc12` [Compound A484], the pEC50 in assay [1], in assay [2] and in assay [3] was > 8.00 throughout.
Turning to `CC1(C)CN(c2c(C(=O)N[C@H]3CCOc4ccccc43)cnn3c(-c4cc(F)cc(Cl)c4Cl)c(Cl)cc23)C1` [Compound A567], the pEC50 in assay [1] was 5.00 to 6.00; in assay [2], 5.00 to 6.00; in assay [3], 6.00 to 7.00.
With `Cc1cc2c(C(C)(C)C)c(C(=O)N[C@H]3CCc4sccc43)cnn2c1-c1cc(F)cc(Cl)c1Cl` [Compound A553], the pEC50 in assay [1], in assay [2] and in assay [3] was > 8.00 throughout.
For `Cc1cc2c(C(C)(C)C)c(C(=O)N[C@H]3CCCc4cc(Cl)ccc43)cnn2c1-c1cc(F)cc(Cl)c1Cl` [Compound A549], the pEC50 in assay [1] was 6.00 to 7.00; in assay [2] it was 5.00 to 6.00; in assay [3] it was 6.00 to 7.00.
With `CC(C)c1c(C(=O)N[C@H]2CCOc3ccccc32)cnn2c(-c3cc(Cl)cc(Cl)c3)c(Cl)cc12` [Compound A463], the pEC50 in assay [1] was > 8.00; in assay [2], 7.00 to 8.00; in assay [3], 7.00 to 8.00.
Take `Cc1cc2c(C(C)(C)C)c(C(=O)N[C@H]3CCOc4ncsc43)cnn2c1-c1cc(F)cc(Cl)c1Cl` [Compound A551]: the pEC50 in assay [1], in assay [2] and in assay [3] was 7.00 to 8.00 in each case.
Turning to `Cc1cc2c(C(C)(C)C)c(C(=O)N[C@H]3CCOc4scnc43)cnn2c1-c1cc(F)cc(Cl)c1Cl` [Compound A550], the pEC50 in assay [1], in assay [2] and in assay [3] was 7.00 to 8.00 each time.
As for `CC(C)(C)c1c(C(=O)NN2CCOc3ccccc32)cnn2c(-c3cc(Cl)cc(Cl)c3)c(Cl)cc12` [Compound A516], the pEC50 is > 8.00 in assay [1], 7.00 to 8.00 in assay [2] and > 8.00 in assay [3].
For `CC(C)(C)c1c(C(=O)NN2CCOc3ccccc32)cnn2c(-c3cc(F)cc(Cl)c3Cl)c(Cl)cc12` [Compound A494], the pEC50 in assay [1] is 7.00 to 8.00; in assay [2] it was 7.00 to 8.00; in assay [3], > 8.00.
Regarding `Cc1cc2c(C(C)(C)C)c(C(=O)NC3CCCc4ncsc43)cnn2c1-c1cc(F)cc(Cl)c1Cl` (stereo not drawn) [Compound A533], the pEC50 is 7.00 to 8.00 in assay [1], 6.00 to 7.00 in assay [2] and 6.00 to 7.00 in assay [3].
In the case of `Cc1cc2c(C(C)(C)C)c(C(=O)N[C@H]3CCc4scnc43)cnn2c1-c1cc(F)cc(Cl)c1Cl` [Compound A540], the figures for the negative-log EC50 (pEC50) in assay [1], in assay [2] and in assay [3] were > 8.00, 7.00 to 8.00 and 7.00 to 8.00, respectively.
Regarding `Cc1cc2c(C(C)(C)C)c(C(=O)N[C@H]3CCc4ncccc43)cnn2c1-c1cc(F)cc(Cl)c1Cl` [Compound A559], the pEC50 in assay [1], in assay [2] and in assay [3] was 7.00 to 8.00 in each case.
On to `Cc1cc2c(C(C)(C)C)c(C(=O)N[C@H]3CCOc4ccccc43)cnn2c1N1C[C@H](C)C[C@H](C)C1` [Compound A528], for which the values for the pEC50 in assay [1], in assay [2] and in assay [3] were 7.00 to 8.00, 6.00 to 7.00 and 7.00 to 8.00, respectively.
For `Cc1cc2c(C(C)(C)C)c(C(=O)N[C@H]3CCc4cccnc43)cnn2c1-c1cc(F)cc(Cl)c1Cl` [Compound A544], the negative-log EC50 (pEC50) in assay [1] is 7.00 to 8.00; in assay [2], 6.00 to 7.00; in assay [3], 6.00 to 7.00.
